Data as given in US7772003B2, “Lipid derivatives of aminoglycosides” (Aventis Pharma S.A., priority 2001, dated 2010).
Entries after “also recorded” stand apart in the source; their conditions may differ.

Legend:
[1] = system: HeLa cells; assay: Cytotoxicity by total extractable cellular proteins in the cell lysate; assay type: cell-based; conditions: 48 hours post-transfection, high charge ratio
Method: FIG. 4: Cytotoxicity of the transfecting compound KanaChol. HeLa cells were transfected in accordance with the protocol described in Example 3 using lipoplexes prepared by mixing 5 μg of plasmid DNA expressing luciferase with the amount of lipid required to form lipoplexes characterized by the charge ratio indicated. At 48 hours post-transfection, the cells were recovered and the toxicity was quantified using the total amount of cellular proteins in the cell lysate as an index of the number of cells, cell death producing a decrease in the extractable proteins. The total cellular proteins in the cell lysate is indicated as a function of the charge ratio of the lipoplexes. The data are expressed as concentration of extractable cellular proteins in the cell lysate (at fixed volume).
FIG. 5: Cytotoxicity of the KanaChol/DOPE (molar ratio 1:1) lipsomes. […] At 48 hours post-transfection, the cells were recovered and the toxicity was quantified using the total amount of cellular proteins in the cell lysate as an index of the number of cells, cell death producing a decrease in the extractable proteins. […] The data are expressed as concentration of extractable cellular proteins in the cell lysate (at fixed volume).
Thus, the cytotoxicity of the KanaChol was also measured at various charge ratios with the DNA. […]

[2] = Electrophoretic gel shift studies (mean positive charge); assay type: physicochemical; conditions: complexed with nucleic acids
Method: (§1) This study was carried out for lipoplexes comprising various amounts of KanaChol: 6.6, 13.2, 33, 66 or 132 nmol of KanaChol per 5 μg of DNA. In order to determine the theoretical mean charge ratio, it was considered that 1 μg of DNA represents 3 nmol of negative charges and that 3 amine groups of kanamycin are protonated at neutral pH during the formation of the lipoplexes and the transfection.

[3] = system: HeLa, HEK293 and COS cells; assay: In vitro transfection, dose-response (luciferase reporter gene expression); assay type: cell-based
Method: FIG. 2: Dose-response curves of the in vitro transfection activity of the transfecting compound “KanaChol”. The expression of the reporter gene is indicated as a function of the charge ratio of the lipoplexes formed with the plasmid DNA. The HeLa, HEK293 and COS cells were transfected in accordance with the protocol described in Example 3 using lipoplexes prepared by mixing 5 μg of plasmid DNA expressing luciferase with the required amount of lipid. The data are expressed in relative light units (RLU) per mg of cellular proteins.
FIG. 3: Dose-response curves of the in vitro transfection activity of the KanaChol/DOPE (molar ratio 1:1) liposomes. The expression of the reporter gene is indicated as a function of the charge ratio of the lipoplexes formed with the plasmid DNA. The HeLa, HEK293 and COS cells were transfected in accordance with the protocol described in Example 4 using lipoplexes prepared by mixing 5 μg of plasmid DNA expressing luciferase with the required amount of lipid to form lipoplexes characterized by the charge ratio indicated. The data are expressed in relative light units (RLU) per mg of cellular proteins.
as §1
Preparation of the KanaChol/DNA lipoplexes: the KanaChol obtained according to Example 1 was dissolved in a 20 mM Hepes buffer solution (pH 7.4) at a positive charge concentration of 20 mM (considering that 3 amine functions are protonated at neutral pH). The lipoplexes were then prepared in accordance with the protocol described by Vigneron et al. (PNAS, 93, pp. 9682-9686, September. 1996) or by Patel et al. (Biochem. and Biophys. Res. Comm., 281, pp. 536-543, 2001).
Cell culture: HeLa cells (American Type Culture Collection (ATCC) Rockville, Md., USA) derived from a human cervical epithelium carcinoma were cultured in the presence of a medium of the MEM (minimum essential medium) type supplemented with 10% of fetal calf serum and antibiotics. The medium and the additives came from Gibco/BRL Life Technologies (Gaithersburg, Md., USA). The cells were cultured in flasks at 37° C. and at 5% of carbon dioxide in an incubator. […]
A 20 μl aliquot of supernatant of the centrifuged lysate was diluted in 100 μl of lysis buffer, to which 4 μl of 25 mM ATP (Sigma) and 20 μl of 25 mM luciferin (Sigma) were added. The samples were then placed in a Lumet LB9501 luminometer (Berthold, Nashua, N.H.) and the light emission integration value was measured for 10 seconds. […]

[4] = system: various cell lines (16HBE, HepG2); assay: In vitro transfection activity spectrum in other, less conventional cell lines (luciferase); assay type: cell-based; conditions: charge ratios of between 3 and 5; KanaChol alone weaker in particular in 16HBE and HepG2
Method: FIG. 6: Expression of luciferase in various cell lines transfected either with the transfecting compound KanaChol or with the KanaChol/DOPE (1:1) liposomes. The various cell lines were transfected in accordance with the protocol described in Example 5 using either KanaChol/DNA lipoplexes or KanaChol/DOPE/DNA lipoplexes (with a positive charge ratio of 3-5) prepared by mixing 5 μg of plasmid DNA expressing luciferase and the required amount of lipid to obtain a positive charge ratio of 3-5. The data are expressed in relative light units (RLU) per mg of cellular proteins.
The in vitro transfection experiments carried out in Examples 4 and 5 were again carried out in a similar way, but with other less conventional cell lines (species and specificity of each cell line are indicated in FIG. 6). The KanaChol/DNA and KanaChol/DOPE/DNA formulations were used at charge ratios of between 3 and 5 (optimum values as defined in Examples 4 and 5).

[5] = system: HeLa; NIH 3T3; HEK298; COS; and 16HBE cell lines; assay: In vitro transfection activity of NeoChol and NeoChol/DOPE (luciferase); assay type: cell-based; conditions: various charge ratios (1.3-26 NeoChol/DNA, 0.66-26 NeoChol/DOPE/DNA); 5 cell lines; NeoChol alone weaker particularly in 16HBE
Method: (§2) FIG. 8: Transfecting activity in various cell lines (HEK293, NIH3T3, HeLa, COS, 16HBE), which were transfected with the transfecting compound NeoChol. The expression of the reporter gene can be indicated as a function of the various charge ratio of the lipoplexes and plasmid DNA. The various cell lines were transfected according to the protocol as described in Example 8, using NeoChol/DNA lipoplexes, which were prepared by mixing 5 μg of plasmid DNA expressing luciferase. The data can be expressed in relative light units (RLU) per mg of cellular proteins.
as §2, with “FIG. 9: Expression of luciferase” for “FIG. 8: Transfecting activity”, “compound NeoChol/DOPE (1:1).” for “compound NeoChol.”, “gene is” for “gene can be”, “using NeoChol/DOPE/DNA” for “using NeoChol/DNA”, “data are” for “data can be”, “proteins. […]” for “proteins.”

Structure (SMILES) | cytotoxicity (total extractable cellular proteins in the cell lysate) [1] | mean positive charge [2] | cell line with highest transfection ([3]; HeLa, HEK293 and COS compared) | expression of the reporter gene luciferase (transfection) ([3]; lipoplexes with 5 μg plasmid DNA expressing luciferase, HeLa, HEK293 and COS cells, data in RLU per mg of cellular proteins) | theoretical mean charge ratio of optimum transfection efficiency ([3]; lipoplexes with 5 μg plasmid DNA, 3 cell lines) | charge ratio at which the transfection efficiency decreases ([3]; very high charge ratios) | transfection efficiency (luciferase expression) [4] | transfection efficacy (luciferase expression) [5]
CC(C)CCCC(C)C1CCC2C3CC=C4CC(OC(=O)NCC5OC(OC6C(N)CC(N)C(OC7OC(CO)C(O)C(N)C7O)C6O)C(O)C(O)C5O)CCC4(C)C3CCC12C (stereo not drawn) [KanaChol, 3β[6′-kanamycin-carbamoyl]cholesterol] | decrease in the total number of extractable cellular proteins | 2-3 | highest in the COS cell line | high expression levels | approximately 5 | > 7 | less efficient overall | –
CC(C)CCCC(C)C1CCC2C3CC=C4CC(OC(=O)NCCSC[C@H]5O[C@@H](OC6C(O)[C@H](N)CC(N)[C@H]6O[C@H]6CC(CN)[C@@H](O)C(O)C6N)C(O)C5O[C@H]5OC(CN)[C@@H](O)C(O)C5N)CCC4(C)C3CCC12C (some centres unmarked) [NeoChol, (5″-aminoethylsulfanyl) neomycin carbamoyl cholesterol] | – | – | – | – | – | – | – | efficient transfection; also recorded: somewhat less efficient
